From article PMC5862592, “CDK8/19 inhibition induces premature G1/S transition and ATR-dependent cell death in prostate cancer cells” (Oncotarget, 2018)
Like-named read-outs stand apart in the source and are kept apart here.

Columns and labels:
Assay in all cases: biochemical
Design in all cases: KINOMEscan active site-directed competition binding assay (DiscoveRx), 456 kinases, per cent of control at 300 nM
Details in all cases: read-out: Percent of Control (%)
[1] = target: T1, JNK1 (Homo sapiens, UniProt P45983)
T1 construct: gene MAPK8
How it was run: (§1)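 Single-concentration selectivity screen: compound 300 nmol/L; 456-kinase panel; active-site-directed competition binding read-out.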

[2] = target: MARK2 (Homo sapiens, UniProt Q7KZI7)
How it was run: as §1

[3] = target: T2, NDR2 (Homo sapiens, UniProt Q9Y2H1)
T2 construct: gene STK38L
T2 sequence (Q9Y2H1 whole entry): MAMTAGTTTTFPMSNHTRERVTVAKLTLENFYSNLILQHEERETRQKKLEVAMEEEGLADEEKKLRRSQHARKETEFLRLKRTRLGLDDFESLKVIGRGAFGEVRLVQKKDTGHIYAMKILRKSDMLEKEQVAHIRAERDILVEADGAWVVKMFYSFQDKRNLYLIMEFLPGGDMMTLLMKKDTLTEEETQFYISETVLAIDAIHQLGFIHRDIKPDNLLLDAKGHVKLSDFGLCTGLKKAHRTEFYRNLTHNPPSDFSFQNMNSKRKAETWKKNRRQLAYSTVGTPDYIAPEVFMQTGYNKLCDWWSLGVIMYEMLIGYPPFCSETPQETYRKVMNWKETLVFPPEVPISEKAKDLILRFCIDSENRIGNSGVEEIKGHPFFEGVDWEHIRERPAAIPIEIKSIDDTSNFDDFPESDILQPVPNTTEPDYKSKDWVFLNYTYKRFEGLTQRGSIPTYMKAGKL
How it was run: as §1

[4] = target: KIT(V559D,V654A) (Homo sapiens, UniProt P10721, V559D/V654A)
Chain of KIT(V559D,V654A) (P10721 whole entry V559D/V654A): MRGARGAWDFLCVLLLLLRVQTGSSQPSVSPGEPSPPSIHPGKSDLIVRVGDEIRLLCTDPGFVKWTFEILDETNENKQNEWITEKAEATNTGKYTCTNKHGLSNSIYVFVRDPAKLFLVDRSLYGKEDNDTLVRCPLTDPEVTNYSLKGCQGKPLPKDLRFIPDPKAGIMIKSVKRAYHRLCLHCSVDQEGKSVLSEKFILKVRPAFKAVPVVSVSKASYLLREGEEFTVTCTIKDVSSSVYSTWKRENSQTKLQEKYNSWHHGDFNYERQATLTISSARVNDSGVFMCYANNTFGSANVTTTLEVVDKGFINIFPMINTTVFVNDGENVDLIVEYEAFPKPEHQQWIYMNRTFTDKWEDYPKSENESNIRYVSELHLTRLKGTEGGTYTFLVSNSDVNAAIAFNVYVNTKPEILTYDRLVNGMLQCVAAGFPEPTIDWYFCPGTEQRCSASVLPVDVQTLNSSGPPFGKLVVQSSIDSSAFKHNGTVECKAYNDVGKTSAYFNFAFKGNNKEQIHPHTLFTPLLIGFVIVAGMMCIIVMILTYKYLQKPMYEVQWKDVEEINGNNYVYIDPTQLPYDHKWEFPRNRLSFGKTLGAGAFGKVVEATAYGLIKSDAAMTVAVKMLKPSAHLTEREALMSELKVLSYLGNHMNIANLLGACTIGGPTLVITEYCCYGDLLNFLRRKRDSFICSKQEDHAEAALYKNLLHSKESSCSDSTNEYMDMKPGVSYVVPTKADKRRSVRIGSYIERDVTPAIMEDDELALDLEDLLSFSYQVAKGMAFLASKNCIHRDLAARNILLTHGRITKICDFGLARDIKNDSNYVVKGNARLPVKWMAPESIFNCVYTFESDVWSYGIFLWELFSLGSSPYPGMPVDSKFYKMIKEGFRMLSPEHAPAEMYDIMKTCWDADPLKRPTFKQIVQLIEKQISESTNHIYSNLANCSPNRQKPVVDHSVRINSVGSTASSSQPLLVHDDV
How it was run: as §1

[5] = target: T3, ABL1(H396P)-phosphorylated (Homo sapiens, UniProt P00519, H396P)
T3 construct: phosphorylated
How it was run: as §1

[6] = target: MAP3K3 (Homo sapiens, UniProt Q99759)
How it was run: as §1

[7] = target: T4, ERK2 (Homo sapiens, UniProt P28482)
T4 construct: gene MAPK1
T4 sequence (P28482 whole entry): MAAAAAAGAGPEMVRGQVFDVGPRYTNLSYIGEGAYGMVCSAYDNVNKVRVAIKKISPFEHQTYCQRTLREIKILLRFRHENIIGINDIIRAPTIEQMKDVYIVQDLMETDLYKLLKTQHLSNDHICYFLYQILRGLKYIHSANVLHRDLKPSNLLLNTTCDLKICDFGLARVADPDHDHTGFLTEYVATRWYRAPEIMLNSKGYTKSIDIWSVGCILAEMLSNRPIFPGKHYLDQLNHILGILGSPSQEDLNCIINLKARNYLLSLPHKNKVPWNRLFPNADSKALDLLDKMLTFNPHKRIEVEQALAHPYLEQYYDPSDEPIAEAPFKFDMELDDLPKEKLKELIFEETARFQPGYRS
How it was run: as §1

[8] = target: EPHB3 (Homo sapiens, UniProt P54753)
How it was run: as §1

[9] = target: T5, SNARK (Homo sapiens, UniProt Q9H093)
T5 construct: gene NUAK2
How it was run: as §1

[10] = target: T6, CDC2L1 (Homo sapiens, UniProt P21127)
T6 construct: gene CDK11B
How it was run: as §1

[11] = target: T7, DMPK2 (Homo sapiens, UniProt Q6DT37)
T7 construct: gene CDC42BPG
How it was run: as §1

[12] = target: PRKCQ (Homo sapiens, UniProt Q04759)
Chain of PRKCQ (Q04759 whole entry): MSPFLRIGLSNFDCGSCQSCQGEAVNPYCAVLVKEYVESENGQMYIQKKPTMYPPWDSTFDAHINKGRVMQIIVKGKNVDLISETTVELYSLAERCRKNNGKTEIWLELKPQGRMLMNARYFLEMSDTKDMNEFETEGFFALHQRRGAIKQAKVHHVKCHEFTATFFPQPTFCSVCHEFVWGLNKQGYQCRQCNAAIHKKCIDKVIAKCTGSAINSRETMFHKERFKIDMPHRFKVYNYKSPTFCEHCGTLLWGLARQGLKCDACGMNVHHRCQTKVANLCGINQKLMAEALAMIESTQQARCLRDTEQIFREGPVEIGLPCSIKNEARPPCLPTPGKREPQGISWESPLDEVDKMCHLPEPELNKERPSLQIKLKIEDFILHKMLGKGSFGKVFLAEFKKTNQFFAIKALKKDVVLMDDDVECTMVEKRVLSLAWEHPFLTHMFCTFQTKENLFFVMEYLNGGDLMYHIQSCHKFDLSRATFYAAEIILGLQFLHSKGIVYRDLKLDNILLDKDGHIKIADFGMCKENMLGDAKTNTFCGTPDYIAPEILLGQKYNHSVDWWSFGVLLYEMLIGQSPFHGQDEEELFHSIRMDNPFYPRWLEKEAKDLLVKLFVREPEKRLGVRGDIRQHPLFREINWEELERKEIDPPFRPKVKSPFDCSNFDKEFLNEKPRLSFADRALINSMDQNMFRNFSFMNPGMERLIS
How it was run: as §1

[13] = target: MAK (Homo sapiens, UniProt P20794)
Chain of MAK (P20794 whole entry): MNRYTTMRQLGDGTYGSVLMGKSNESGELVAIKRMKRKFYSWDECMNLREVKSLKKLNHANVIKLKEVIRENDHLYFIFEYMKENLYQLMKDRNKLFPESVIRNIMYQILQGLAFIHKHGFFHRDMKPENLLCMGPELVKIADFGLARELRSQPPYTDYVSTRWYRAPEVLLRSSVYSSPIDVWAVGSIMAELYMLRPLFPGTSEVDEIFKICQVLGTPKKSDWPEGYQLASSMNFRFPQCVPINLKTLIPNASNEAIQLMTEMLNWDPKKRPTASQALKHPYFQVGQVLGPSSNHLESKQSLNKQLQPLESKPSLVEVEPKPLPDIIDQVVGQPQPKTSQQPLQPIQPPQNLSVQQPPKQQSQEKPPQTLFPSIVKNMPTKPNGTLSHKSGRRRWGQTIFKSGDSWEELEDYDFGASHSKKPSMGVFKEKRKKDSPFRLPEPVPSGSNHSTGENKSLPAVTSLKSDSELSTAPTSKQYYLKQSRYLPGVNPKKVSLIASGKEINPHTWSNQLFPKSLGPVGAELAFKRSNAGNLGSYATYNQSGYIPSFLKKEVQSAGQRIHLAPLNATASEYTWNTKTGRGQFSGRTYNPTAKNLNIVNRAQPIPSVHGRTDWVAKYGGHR
How it was run: as §1

[14] = target: FLT3(D835H) (Homo sapiens, UniProt P36888, D835H)
How it was run: as §1

[15] = target: FES (Homo sapiens, UniProt P07332)
Chain of FES (P07332 whole entry): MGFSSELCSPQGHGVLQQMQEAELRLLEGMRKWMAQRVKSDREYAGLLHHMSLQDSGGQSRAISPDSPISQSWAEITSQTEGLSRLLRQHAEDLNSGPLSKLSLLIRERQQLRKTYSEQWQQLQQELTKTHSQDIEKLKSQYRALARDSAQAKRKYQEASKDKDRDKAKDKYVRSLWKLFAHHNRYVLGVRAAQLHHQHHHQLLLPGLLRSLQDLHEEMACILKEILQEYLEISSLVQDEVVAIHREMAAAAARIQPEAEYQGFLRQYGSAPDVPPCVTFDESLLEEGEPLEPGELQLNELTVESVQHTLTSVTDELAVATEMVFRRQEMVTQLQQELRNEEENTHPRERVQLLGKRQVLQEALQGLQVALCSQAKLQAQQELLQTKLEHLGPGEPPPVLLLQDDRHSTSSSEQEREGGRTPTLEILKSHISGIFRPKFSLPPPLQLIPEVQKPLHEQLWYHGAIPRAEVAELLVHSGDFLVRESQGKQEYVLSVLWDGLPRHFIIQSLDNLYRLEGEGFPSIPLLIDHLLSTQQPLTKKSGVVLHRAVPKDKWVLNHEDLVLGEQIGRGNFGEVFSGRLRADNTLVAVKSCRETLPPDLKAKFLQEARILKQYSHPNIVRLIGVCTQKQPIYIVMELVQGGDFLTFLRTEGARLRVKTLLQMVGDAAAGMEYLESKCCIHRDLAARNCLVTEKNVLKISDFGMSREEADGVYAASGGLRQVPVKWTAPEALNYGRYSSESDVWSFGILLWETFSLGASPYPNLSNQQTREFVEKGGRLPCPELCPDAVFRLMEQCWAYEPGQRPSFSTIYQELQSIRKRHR
How it was run: as §1

[16] = target: FER (Homo sapiens, UniProt P16591)
How it was run: as §1

[17] = target: MAP3K2 (Homo sapiens, UniProt Q9Y2U5)
How it was run: as §1

[18] = target: KIT(V559D,T670I) (Homo sapiens, UniProt P10721, T670I/V559D)
Chain of KIT(V559D,T670I) (P10721 whole entry V559D/T670I): as the sequence (P10721 whole entry V559D/V654A) above, with A654V, T670I counted along it
How it was run: as §1

[19] = target: T8, PRP4 (Homo sapiens, UniProt Q13523)
T8 construct: gene PRPF4B
T8 sequence (Q13523 whole entry): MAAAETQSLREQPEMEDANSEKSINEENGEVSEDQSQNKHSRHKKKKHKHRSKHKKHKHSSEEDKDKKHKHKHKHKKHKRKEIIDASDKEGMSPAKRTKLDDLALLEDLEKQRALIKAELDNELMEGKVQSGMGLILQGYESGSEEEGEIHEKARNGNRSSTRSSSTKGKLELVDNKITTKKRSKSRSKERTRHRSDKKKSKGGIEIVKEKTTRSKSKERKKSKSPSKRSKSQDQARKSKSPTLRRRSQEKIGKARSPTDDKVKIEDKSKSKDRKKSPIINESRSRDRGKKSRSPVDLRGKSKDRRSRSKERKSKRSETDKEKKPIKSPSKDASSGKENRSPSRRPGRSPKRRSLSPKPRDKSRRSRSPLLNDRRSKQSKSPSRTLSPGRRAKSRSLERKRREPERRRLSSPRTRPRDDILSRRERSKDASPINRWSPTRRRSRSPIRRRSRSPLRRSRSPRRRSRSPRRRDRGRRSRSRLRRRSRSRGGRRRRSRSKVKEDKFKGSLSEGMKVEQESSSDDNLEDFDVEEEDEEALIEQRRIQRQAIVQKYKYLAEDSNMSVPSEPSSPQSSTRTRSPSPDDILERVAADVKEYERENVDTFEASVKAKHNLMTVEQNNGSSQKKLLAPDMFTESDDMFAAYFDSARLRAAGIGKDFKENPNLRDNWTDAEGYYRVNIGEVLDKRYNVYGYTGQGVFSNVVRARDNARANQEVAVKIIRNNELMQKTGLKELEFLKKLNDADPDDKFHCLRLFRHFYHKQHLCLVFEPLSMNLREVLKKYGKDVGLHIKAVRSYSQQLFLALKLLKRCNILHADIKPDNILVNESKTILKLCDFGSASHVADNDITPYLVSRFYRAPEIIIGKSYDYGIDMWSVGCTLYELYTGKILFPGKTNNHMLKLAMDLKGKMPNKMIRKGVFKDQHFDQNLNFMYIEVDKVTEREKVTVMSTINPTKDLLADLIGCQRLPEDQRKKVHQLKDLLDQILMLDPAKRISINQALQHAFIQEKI
How it was run: as §1

[20] = target: T9, ABL1(M351T)-phosphorylated (Homo sapiens, UniProt P00519, M351T)
T9 construct: phosphorylated
How it was run: as §1

[21] = target: T10, MEK6 (Homo sapiens, UniProt P52564)
T10 construct: gene MAP2K6
How it was run: as §1

## O=C(/C=C/c1cnccc1-c1ccc(F)cc1)Nc1ccc(CCc2nnco2)cc1 [T-418, (2E)-3-(4-(4-fluorophenyl)pyridin-3-yl)-N-(4-(2-(1,3,4-oxadiazol-2-yl)ethyl)phenyl)acrylamide]
[1]; sheet T-418
  remaining binding at 0.3 µM: 90%
[2]; sheet T-418
  remaining binding at 0.3 µM: 100%
[3]; sheet T-418
  remaining binding at 0.3 µM: 100%
[4]; sheet T-418
  remaining binding at 0.3 µM: 96%
[5]; sheet T-418
  remaining binding at 0.3 µM: 96%
[6]; sheet T-418
  remaining binding at 0.3 µM: 94%
[7]; sheet T-418
  remaining binding at 0.3 µM: 79%
[8]; sheet T-418
  remaining binding at 0.3 µM: 98%
[9]; sheet T-418
  remaining binding at 0.3 µM: 60%
[10]; sheet T-418
  remaining binding at 0.3 µM: 92%
[11]; sheet T-418
  remaining binding at 0.3 µM: 71%
[12]; sheet T-418
  remaining binding at 0.3 µM: 83%
[13]; sheet T-418
  remaining binding at 0.3 µM: 100%
[14]; sheet T-418
  remaining binding at 0.3 µM: 100%
[15]; sheet T-418
  remaining binding at 0.3 µM: 83%
[16]; sheet T-418
  remaining binding at 0.3 µM: 98%
[17]; sheet T-418
  remaining binding at 0.3 µM: 100%
[18]; sheet T-418
  remaining binding at 0.3 µM: 77%
[19]; sheet T-418
  remaining binding at 0.3 µM: 82%
[20]; sheet T-418
  remaining binding at 0.3 µM: 100%
[21]; sheet T-418
  remaining binding at 0.3 µM: 99%

## Cc1ncccc1Oc1sc(C(N)=O)c2c1-c1c(cnn1C)CC2 [T-474, 1-methyl-8-((2-methylpyridin-3-yl)oxy)-4,5-dihydro-1H-thieno[3,4-g]indazole-6-carboxamide]
[1]
  remaining binding at 0.3 µM: 87%
[2]
  remaining binding at 0.3 µM: 100%
[3]
  remaining binding at 0.3 µM: 100%
[4]
  remaining binding at 0.3 µM: 100%
[5]
  remaining binding at 0.3 µM: 100%
[6]
  remaining binding at 0.3 µM: 100%
[7]
  remaining binding at 0.3 µM: 85%
[8]
  remaining binding at 0.3 µM: 100%
[9]
  remaining binding at 0.3 µM: 74%
[10]
  remaining binding at 0.3 µM: 100%
[11]
  remaining binding at 0.3 µM: 87%
[12]
  remaining binding at 0.3 µM: 100%
[13]
  remaining binding at 0.3 µM: 98%
[14]
  remaining binding at 0.3 µM: 58%
[15]
  remaining binding at 0.3 µM: 100%
[16]
  remaining binding at 0.3 µM: 90%
[17]
  remaining binding at 0.3 µM: 100%
[18]
  remaining binding at 0.3 µM: 100%
[19]
  remaining binding at 0.3 µM: 89%
[20]
  remaining binding at 0.3 µM: 100%
[21]
  remaining binding at 0.3 µM: 92%
